According to patent US12162959B2, “Cyclic peptide for treating cancer” (Saint Leo University, priority 2018, dated 2024):
Where a SMILES comes first, the peptide text is derived from it.

Tests used:
[1] = tested on: Human recombinant CMG helicase; test: In vitro CMG helicase activity assay with Y-shaped oligonucleotide substrate; format: biochemical; settings: about 5 nM CMG helicase, 1.0, 2.0 or 5.0 nM peptide, 0.5 mM ATP, 37° C. 45 minutes; FIG. 1A/1B
Description: Human recombinant CMG helicase was co-incubated with Peptide 7N (amide cyclic of SEQ ID NO: 1) peptide in the 1-5 nM range and subjected to an in vitro activity assay with Y-shaped oligonucleotides as a substrate.
About 5 nM of CMG helicase was pre-incubated with 1.0, 2.0, or 5.0 nM of Peptide 7N peptide for 20 minutes on ice. In vitro helicase reactions containing partially annealed Y-shaped oligonucleotides as substrate were fired by the addition of 0.5 mM ATP as described previously (Kang Y H et al. PNAS, 2012, 109(16), p. 6042-6047). Reactions were incubated at 37° C. for 45 minutes, stopped with 4 μL of 6× stop solution, and separated by 10% PAGE. To visualize DNA bands, the gel was stained using SYBR Gold nucleic acid stain. Densities of single-stranded DNA bands were quantified by using Image Lab software, and normalized against control.

[2] = tested on: SVG p12 immortalized normal astroglia cells
Description: (§1) Cells were incubated post-transfection for a duration of two doubling periods and assessed for viability by using a cell proliferetion CCK-8 assay.
(§2) IC50 values were calculated form obtained equations that describe cell viability as a function of peptide concentration.

[3] = tested on: hTERT-HPNE immortalized normal pancreatic cells
Description: as §1, §2

[4] = tested on: MRC-9 normal embryonic lung fibroblasts
Description: as §1, §2

[5] = tested on: THLE-3 immortalized normal liver cells
Description: (§3) Hepatocellular carcinoma (Hep3B and Hep-G2) and immortalized normal liver (THLE-3) cells were transfected with 1.25 μM, 2.5 μM, 5.0 μM, or 20.0 μM of peptide 7N by using Pierce Protein Transfection reagent. Cells were incubated post-transfection for a duration of two doubling periods and assessed for viability by using a cell proliferetion CCK-8 assay.
as §2

[6] = tested on: HMEC primary mammary epithelial cells
Description: (§4) Breast adenocarcinoma (MDA-MB468), ductal carcinoma (BT-549), and primary mammary epithelial (HMEC) cells were transfected with 1.25 μM, 2.5 μM, 5.0 μM, or 20.0 μM of peptide 7N by using Pierce Protein Transfection reagent. Cells were incubated post-transfection for a duration of two doubling periods and assessed for viability by using a cell proliferetion CCK-8 assay.
as §2

Description for BT-549 cells: as §4, §2
Description for H596 cells: as §1, §2
Description for HLF-a cells: as §1, §2
Description for Hep-G2 cells: as §3, §2
Description for Hep3B cells: as §3, §2
Description for Hs 766T cells: as §1, §2
Description for M059J cells: as §1, §2
Description for M059K cells: as §1, §2
Description for MDA-MB468 cells: as §4, §2
Description for NTERA-2 cells: Pierce Protein Transfection reagent (Thermo Scientific, 89850) was used to deliver peptide to the cultured cells. Transfected cells were allowed to go through two division cycles (48 hours) port-transfection, after which amounts of alive cells were determined by using a colorimetric CCK-8 assay (Dojindo Molecular Technologies, Inc.).
Human embryonal testicular carcinoma cells (NTERA-2 from ATCC #CRL-1973) were transfected with 1-10 μM Peptide 7N for 4.0 hours, incubated in a complete media for 48 hours, and assessed for viability by using a CCK-8 colorimetric assay.
as §2
Description for PANC-1 cells: as §1, §2
Description for SW480 cells: (§5) Colorectal adenocarcinoma cells (SW480 and SW620) were transfected with 1.25 μM, 2.5 μM, 5.0 μM, or 20.0 μM of peptide 7N by using Pierce Protein Transfection reagent. Cells were incubated post-transfection for a duration of two doubling periods and assessed for viability by using a cell proliferetion CCK-8 assay.
as §2
Description for SW620 cells: as §5, §2

## CSCC[C@@H]1NC(=O)[C@H](CCC(N)=O)NC(=O)[C@H](CC(C)C)NC(=O)[C@H](C(C)C)NC(=O)[C@H](CCC(=O)O)NC(=O)CNC(=O)[C@H](CCCCN)NC(=O)[C@H](C(C)C)NC(=O)[C@H](CC(C)C)NC(=O)[C@H](CC(=O)O)NC(=O)[C@H](CC(=O)O)NC(=O)[C@H](CCC(=O)O)NC1=O [Peptide 7N, Lys-Gly-Glu-Val-Leu-Gln-Met-Glu-Asp-Asp-Leu-Val] (cyclo(KGEVLQMEDDLV))
[1]
  Inhibition of CMG helicase (density of single-stranded DNA bands normalized against control): inhibited CMG helicase in a robust dose-dependent manner
PANC-1 cells
  IC50: 24.6 µM
PANC-1 cells; PANC-1, 1.25-20.0 μM peptide, CCK-8, FIG. 5
  Proliferation of pancreatic carcinoma cells (result in words): decreased proliferation
Hep-G2 cells
  IC50: 16.7 µM
Hep-G2 cells; Hep-G2, 1.25-20.0 μM peptide, CCK-8, FIG. 4
  Proliferation of liver carcinoma cells (result in words): decreased proliferation
BT-549 cells
  IC50: 18.3 µM
BT-549 cells; BT-549, 1.25-20.0 μM peptide, CCK-8, FIG. 7
  Proliferation of breast cancer cells (result in words): decreases proliferation
[2]
  IC50: 271 µM
[2]; SVG p12, 1.25-20.0 μM peptide, CCK-8, FIG. 6
  Effect on immortalized normal astroglia cells (result in words): sparing
M059J cells
  IC50: 15.4 µM
M059J cells; M059J, 1.25-20.0 μM peptide, CCK-8, FIG. 6
  Proliferation of brain glioma cells (result in words): decreased proliferation
M059K cells
  IC50: 16.1 µM
M059K cells; M059K, 1.25-20.0 μM peptide, CCK-8, FIG. 6
  Proliferation of brain glioma cells (result in words): decreased proliferation
MDA-MB468 cells
  IC50: 17.1 µM
MDA-MB468 cells; MDA-MB468, 1.25-20.0 μM peptide, CCK-8, FIG. 7
  Proliferation of breast cancer cells (result in words): decreases proliferation
SW480 cells
  IC50: 21.8 µM
SW480 cells; SW480, 1.25-20.0 μM peptide, CCK-8, FIG. 8
  Proliferation of colorectal cancer cells (result in words): decreased proliferation
Hep3B cells
  IC50: 14.1 µM
Hep3B cells; Hep3B, 1.25-20.0 μM peptide, CCK-8, FIG. 4
  Proliferation of liver carcinoma cells (result in words): decreased proliferation
SW620 cells
  IC50: 22 µM
SW620 cells; SW620, 1.25-20.0 μM peptide, CCK-8, FIG. 8
  Proliferation of colorectal cancer cells (result in words): decreased proliferation
NTERA-2 cells; 48 h
  IC50: 7 µM
NTERA-2 cells; transfected with 1-10 μM peptide for 4.0 hours, 48 hours in complete media, CCK-8, FIG. 2
  Proliferation/viability of NTERA-2 cells: effectively inhibited proliferation
[3]
  IC50: 1050 µM
[3]; hTERT-HPNE, 1.25-20.0 μM peptide, CCK-8, FIG. 5
  Effect on immortalized normal pancreatic cells (result in words): sparing
Hs 766T cells
  IC50: 18.1 µM
Hs 766T cells; Hs 766T, 1.25-20.0 μM peptide, CCK-8, FIG. 5
  Proliferation of pancreatic carcinoma cells (result in words): decreased proliferation
[4]
  IC50: 162 µM
[4]; MRC-9, 1.25-20.0 μM peptide, CCK-8, FIG. 3
  Effect on normal lung fibroblasts (result in words): sparing
H596 cells
  IC50: 12.2 µM
H596 cells; H596, 1.25-20.0 μM peptide, CCK-8, FIG. 3
  Proliferation of lung carcinoma cells (result in words): decreased proliferation
[5]
  IC50: 722 µM
[5]; THLE-3, 1.25-20.0 μM peptide, CCK-8, FIG. 4
  Effect on immortalized normal liver cells (result in words): sparing
[6]
  IC50: 134 µM
[6]; HMEC, 1.25-20.0 μM peptide, CCK-8, FIG. 7
  Effect on normal mammary epithelial cells (result in words): sparing
HLF-a cells
  IC50: 14.4 µM
HLF-a cells; HLF-a, 1.25-20.0 μM peptide, CCK-8, FIG. 3
  Proliferation of lung carcinoma cells (result in words): decreased proliferation
